Earlier results as cited in PMC6906431, “Selective small molecule PARG inhibitor causes replication fork stalling and cancer cell death” (Nature Communications, 2019).
Read-outs that look alike come from different tables or passages of the source.

System: PARG
Details: cited from earlier work

For `Nc1ncnc2c1ncn2[C@@H]1O[C@H](CO[P@](=O)(O)O[P@@](=O)(O)OC[C@H]2NC[C@H](O)[C@@H]2O)[C@@H](O)[C@H]1O` [ADP-HPD, adenosine diphosphate (hydroxymethyl)pyrrolidinediol, reference compound], the IC50 (read-out: IC50, published values) is listed as 100 to 1400 nM.

For `O=C(OC[C@H]1O[C@@H](OC(=O)c2cc(O)c(O)c(OC(=O)c3cc(O)c(O)c(O)c3)c2)[C@H](OC(=O)c2cc(O)c(O)c(OC(=O)c3cc(O)c(O)c(O)c3)c2)[C@@H](OC(=O)c2cc(O)c(O)c(OC(=O)c3cc(O)c(O)c(O)c3)c2)[C@@H]1OC(=O)c1cc(O)c(O)c(OC(=O)c2cc(O)c(O)c(O)c2)c1)c1cc(O)c(O)c(OC(=O)c2cc(O)c(O)c(O)c2)c1` [Gallotannin], the IC50 (read-out: IC50) is given as less than 5000 nM.
